Experimental data: patent publication US11753373B2, “Protease inhibitors as antivirals” (priority 2021, dated 2023)
Read-outs that look alike come from different tables or passages of the source.

What was measured:
[1] = molecular target: SARS-CoV-2 M^pro (3CL protease) (Severe acute respiratory syndrome coronavirus 2 (2019-nCoV) (SARS-CoV-2), UniProt P0DTD1); type: biochemical; settings: read-out: SARS-CoV-2M^pro inhibition IC50
[2] = type: in vitro ADME, Human; settings: extraction ratio, compound at 1 uM, human liver microsomes 0.5 mg/mL
Method: (§1) Metabolic stability of novel protease inhibitors was determined via liver microsomal stability assay. Human, mouse, SD rat, beagle dog or monkey liver microsomes were incubated with the test compound for 5 to 60 minutes at 37° C., and then the remaining parent compound was quantified by LC-MS/MS. Percentage of the test compound remaining, half-life (t1/2), in vitro intrinsic clearance (CLint, in vitro), in vivo intrinsic clearance (CLint, in vivo), hepatic clearance (CLh) and extraction ratio (ER) were calculated.
(§2) Procedure: The assay was done as described in Baranczewski, P. et al. (2006) Pharmacological Reports 58:453-472; Pearson, P. and Wienkers, L. (2008) Handbook of Drug Metabolism, 2nd Edition. CRC Pres, P.478; and Venkatesh, P. et al. (2007) Biol. Pharm. Bull. 30:1021-2024. 0.625 mg/mL liver microsomes solution was prepared by mixing 2325 μL 100 mM of K-phosphate buffer (pH 7.4) containing 2.5 mM of MgCl2, 1.25 mM of EDTA, and 75 μL microsomes (20 mg/mL) in a vial for each species.
(§3) Positive control compound: (±) Verapamil hydrochloride (Cat No.: V4629; Lot No.: MKBV4993V; Source: Sigma)
(§4) 40 μL aliquots of the liver microsome/test compound mixture were dispensed into 96-well plate in triplicate and pre-warmed the mixture for 5 minutes at 37° C. Then, 10 μL of 5 mM NADPH solution was added to each well to initiate the reaction, and gently mixed. The samples were incubated at 37° C. with gentle shaking.
(§5) For 0-min samples, 200 μL of ACN containing internal standard was added to 40 μL of liver microsome/test compound mixture, followed by addition of 5 mM NADPH, and mixed gently.
(§6) For negative control: 40 μL of liver microsome/test compound mixture was incubated at 37° C. with gentle shaking for 60 minutes, followed by addition of 200 μL ACN containing 1% FA and internal standard and 10 μL of 5 mM NADPH, mixed gently.
(§7) All samples were centrifuged at 4° C. for 20 minutes at 4,000 rpm. Then, 100 μL of the supernatant from each sample was transferred to a new 96-well plate and 100 μL of ultrapure water containing 1% FA was added to each well, and mixed gently. Samples were analyzed by LC-MS/MS.
(§8) Data Analysis: Peak area ratio (Peak Area of test compound/Peak Area of internal standard) was used to represent the concentration of compound in each sample. The remaining percentage (% Remaining) at appointed time points was calculated versus the concentration of compound at 0 min. The Ln value of the remaining percentage was linearly fitted against the incubation time.
(§9) The half-life and clearance were calculated using the following equations:
(§10) Determined percent of the remaining test compound: % remaining=[area at tx/average areas at t0]×100 (1) % metabolized=[100−% remaining] (2)
(§11) Calculated the half-life (t1/2) using the slope (k) of the log-linear regression from the concentration of remaining parent compound versus time (min) relationship: t1/2 (min)=−ln 2/k. (3)
(§12) Clint, in vitro (mL/min/mg) Clint,in vitro=k/c,(c:Liver microsome concentration in the incubation system) (4)
(§13) Hepatic Clearance (CLh) CLh=Clint,in vivo*Hepatic Blood Flow (mL/min/kg)/(Hepatic Blood Flow (mL/min/kg)+Clint,in vivo) (6)
(§14) Extraction ratio (ER): ER=CLint,in vivo/(Qh+CLint,in vivo)*100,Qh:liver blood flow (7)

[3] = type: in vitro ADME; settings: extraction ratio, compound at 1 uM; for Liver Microsomal Stability (ER) SD rat: SD rat liver microsomes 0.5 mg/mL; for Liver Microsomal Stability (ER) Beagle dog: beagle dog liver microsomes 0.5 mg/mL; for Liver Microsomal Stability (ER) Monkey: monkey liver microsomes 0.5 mg/mL; for Liver Microsomal Stability (ER) Mouse: mouse liver microsomes 0.5 mg/mL
Method: as §1, §2, §3
as §4, with “shaking. (Final concentrations: compound=1 μM; liver microsomes protein=0.5 mg/mL; MgCl2=2 mM; EDTA=1 mM; ACN=0.1%; DMSO=0.05%).” for “shaking.”
as §5, §6, §7, §8, §9, §10, §11, §12, §13, §14

SARS-CoV-2 = assay: Anti-viral in vitro PRNT assay in Vero E6 cells; type: cell-based; settings: Vero E6 cells, 1000 pfu, 3 days, plaque reduction; for EC50: read-out: anti-SARS-CoV2 (PRNT) in Vero E6 EC50
[4] = mouse oral PK, female Balb/c, 40 mg/kg single dose; for AUC0-t / Cmax / Tmax / t1/2: plasma
Method: Pharmacokinetics of test compounds was evaluated following an oral administration of a single dose (at 40 mg/kg) to female Balb/c mice.
Procedure: Test compounds were administered to Balb/c mice (n=3 per sex per time point) by a single oral gavage. The target dose level for oral administration was 40 mg/kg. Blood samples were collected at pre-dose, and at 0.083, 0.25, 0.50, 1, 2, 4, 6, 8, and 12 hours post-dose. Concentrations of test compound were determined by an LC-MS/MS. Non-compartmental Pharmacokinetic parameters of test compounds were analyzed using Phoenix WinNonlin 8.3.
Animal Dosing: All animals were fasted overnight through approximately 4 hours post-dose. Tap water was provided to mice ad Libitum. The mice were dosed orally at 10.0 ml/kg. The formulation volume of the test compound administered to each animal was calculated based on the body weight measured on the day of dosing.
Sample Collection and Analysis: Approximately 0.20 mL of blood was collected via orbital sinus vein puncture into EDTA-K2 tubes. Plasma samples were harvested by centrifugation and stored at −80° C. until analysis. The analytical method for test compound involved protein precipitation by adding acetonitrile containing 1% FA and internal standard (A-1-a synthesized in house or Tolbutamide purchased from Sigma), and final analysis by LC-MS/MS. A standard curve was prepared using mouse plasma for the test compound. The calibration curve was linear over a concentration range of 1.0 to 1000 ng/mL.
Pharmacokinetic and Statistic Analysis: The reported plasma concentrations of test compounds were used to determine pharmacokinetic parameters, using a non-compartmental model for data analysis (Phoenix WinNonlin 8.3). The common pharmacokinetic parameters were calculated, whenever possible, from the plasma concentration-versus-time data. Nominal doses and sampling times were used, except where deviations were noted. […] BQL after Tmax would not participate in calculation of PK parameters.

[5] = wild type Mpro 17 nM, substrate 40 uM

Compound | IC50 [1] [nM] | Liver Microsomal Stability (ER) Human [2] | Liver Microsomal Stability (ER) SD rat [3] | Liver Microsomal Stability (ER) Beagle dog [3] | Liver Microsomal Stability (ER) Monkey [3] | Liver Microsomal Stability (ER) Mouse [3] | IC50 [1, 5] [nM] | EC50 (SARS-CoV-2) [nM] | anti-SARS-CoV2 (PRNT) in Vero E6 EC50 (μM) (SARS-CoV-2) | F % (bioavailability) [4] [%] | AUC0-t [4] [ng·h/mL] | Cmax [4] [ng/mL] | Tmax [4] [min] | t1/2 [4] [min]
CC(C)C[C@H](NC(=O)c1cc2c(F)cccc2[nH]1)C(=O)N[C@@H](C[C@@H]1CCNC1=O)C(=O)CCl [Compound A-3-d, (2S)—N-[(2S)-4-chloro-3-oxo-1-[(3S)-2-oxopyrrolidin-3-yl]butan-2-yl]-2-[(4-fluoro-1H-indol-2-yl)formamido]-4-methylpentanamide] | 335 | 0.84 | 0.77 | 0.78 | 0.72 | 0.58 |  |  |  |  |  |  |  | 
Cc1cccc2[nH]c(C(=O)N[C@@H](CC(C)C)C(=O)N[C@H](C#N)C[C@@H]3CCNC3=O)cc12 [Compound A-4-b] |  | 0.02 | 0.20 | 0.06 | 0.43 | 0.47 | 172 |  |  |  |  |  |  | 
CC(C)C[C@H](NC(=O)OCc1ccccc1)C(=O)N[C@H](C#N)C[C@@H]1CCNC1=O [Compound B-1-e] |  | 0.24 | 0.48 | 0.37 | 0.11 | 0.00 |  | 10500 |  |  |  |  |  | 
C=CC(=O)N[C@H](C[C@@H]1CCNC1=O)NC(=O)[C@H](CC(C)C)NC(=O)OCc1ccccc1 [Compound B-1-f] |  | −0.19 | 0.13 | 0.04 | 0.04 | 0.07 |  |  | inactive |  |  |  |  | 
C=CC(=O)N[C@H](C[C@@H]1CCNC1=O)NC(=O)[C@H](CC1CCCCC1)NC(=O)OCc1ccccc1 [Compound B-2-e] |  | 0.73 | 0.19 | 0.47 | 0.70 | 0.43 |  |  | inactive |  |  |  |  | 
C[C@@H](OC(C)(C)C)[C@H](NC(=O)OCc1ccccc1)C(=O)N[C@@H](CC1CCCCC1)C(=O)N[C@H](C=O)C[C@@H]1CCNC1=O [Compound C-2-b] |  | 0.66 | 0.29 | 0.48 | 0.43 | 0.48 |  | 730 |  | 5.0 | 665.2 | 496 | 15 | 52.6
CC(C)(C)[C@H](NC(=O)C(F)(F)F)C(=O)N1C[C@H]2[C@@H]([C@H]1C(=O)N[C@@H](C[C@@H]1CCNC1=O)C(=O)CO)C2(C)C [Compound D-1-c] |  | 0.04 | 0.04 | −0.06 |  | 0.18 |  | 610 |  |  | 1359 | 410 | 30 | 174
C=CC(=O)N[C@H](C[C@@H]1CCNC1=O)NC(=O)[C@@H]1[C@@H]2[C@H](CN1C(=O)[C@@H](NC(=O)C(F)(F)F)C(C)(C)C)C2(C)C [Compound D-1-e] |  | −0.05 | 0.04 | −0.04 | −0.10 | −0.04 |  |  | inactive |  |  |  |  | 
CC1(C)[C@@H]2[C@@H](C(=O)N[C@H](C#N)C[C@@H]3CCNC3=O)N(C(=O)[C@@H](NC(=O)C3CC3)C3CC3)C[C@@H]21 [Compound D-2-c] | 69.7 |  |  |  |  |  |  |  |  |  |  |  |  | 
CC(C)(C)[C@H](NC(=O)C(F)F)C(=O)N1C[C@H]2[C@@H]([C@H]1C(=O)N[C@H](C#N)C[C@@H]1CCNC1=O)C2(C)C [Compound D-3-b] |  | 0.01 | 0.02 | −0.01 |  | 0.26 |  | 3570 |  | 20.2 | 3768 | 1190 | 60 | 112
C[C@H](NC(=O)[C@@H]1[C@@H]2[C@H](CN1C(=O)[C@@H](NC(=O)C(F)(F)F)C(C)(C)C)C2(C)C)C(=O)CCl [Compound F-1-b] |  | 0.48 | 0.53 | 0.46 | 0.44 | 0.38 |  |  | inactive |  |  |  |  | 
CC(C)[C@H](NC(=O)[C@@H]1[C@@H]2[C@H](CN1C(=O)[C@@H](NC(=O)C(F)(F)F)C(C)(C)C)C2(C)C)C(=O)CCl [Compound F-2-b] |  | 0.81 | 0.65 | 0.55 | 0.57 | 0.50 |  | 420 |  |  |  |  |  | 
C[C@@H](C=O)NC(=O)[C@@H]1[C@@H]2[C@H](CN1C(=O)[C@@H](NC(=O)C(F)(F)F)C1CC1)C2(C)C [Compound F-3-c] |  | −0.35 | 0.02 | −0.04 | −0.03 | −0.05 |  |  | inactive |  |  |  |  | 
CC(C)[C@@H](C#N)NC(=O)[C@@H]1[C@@H]2[C@H](CN1C(=O)[C@@H](NC(=O)C(F)(F)F)C1CC1)C2(C)C [Compound F-4-a] |  | 0.07 | 0.20 | 0.08 | 0.07 | 0.03 |  |  | inactive |  |  |  |  | 
CC(C)C[C@H](NC(=O)c1cc2ccccc2[nH]1)C(=O)N1C[C@H]2[C@@H]([C@H]1C(=O)N[C@H](C(=O)CCl)C(C)(C)C)C2(C)C [Compound G-3-c] |  |  |  |  |  |  | > 10000 |  |  |  |  |  |  | 
CC(C)C[C@H](NC(=O)C(F)F)C(=O)N1C[C@H]2[C@@H]([C@H]1C(=O)N[C@H](C#N)C[C@@H]1CCNC1=O)C2(C)C [Compound H-1-b] |  | 0.09 | 0.06 | 0.05 |  | 0.35 |  |  |  |  | 304 | 193 | 30 | 143
